Source: paper PMC8286599 (Gut Pathogens, 2021)
Read-outs that look alike come from different tables or passages of the source.

Tests used:
MDR-EAEC strains [1] = assay: MIC and MBC by broth microdilution with resazurin; format: cell-based, enteroaggregative Escherichia coli; details: infant diarrhoea isolate
Description: (§1) The characterised MDR field strains of EAEC (E1; E2; E3), S. Enteritidis (S1; S2; S3), and S. Typhimurium (ST1; ST2; ST3) maintained in the laboratory repository of Meat Safety Laboratory of ICAR-National Research Centre on Meat, Hyderabad re-validated using PCR assays were used to evaluate the in vitro antibacterial efficacy of phytochemicals. E. coli ATCC 25922 was used as the quality control strain.
(§2) The antimicrobial efficacy of identified phytochemicals against multi-drug resistant EAEC and NTS strains was determined by estimating the minimum inhibitory concentration (MIC) and minimum bactericidal concentrations (MBC).
(§3) Subsequent to the incubation period, resazurin dye (0.015 %) was added to all the wells to determine the dye reduction (pink) and thereby the bacterial inhibition.

[2] = test system: MDR-S. Enteritidis strains; assay: MIC and MBC by broth microdilution with resazurin; format: cell-based, Salmonella Enteritidis; details: poultry droppings isolate
Description: as §1, §2, §3

[3] = test system: MDR-S. Typhimurium strains; assay: MIC and MBC by broth microdilution with resazurin; format: cell-based, Salmonella Typhimurium; details: poultry droppings isolate
Description: as §1, §2, §3

Haemolytic assay = format: cell-based; details: read-out: Haemolysis; for hemolysis at 0.5 X MIC: 0.50X MIC
Experimental: The haemolytic assay of the individual phytochemical was performed by measuring the release of haemoglobin from sheep and human ‘O’ erythrocytes at 540 nm. The percentage of haemolysis was calculated as (Asample – APBS)/ (ATriton−X – APBS) ×100, in which Asample is the absorbance of phytochemical treatment, APBS is the absorbance of untreated control with PBS, and ATriton−X is the absorbance of lysed cells treated with Triton X-100 measured at 540 nm.

MDR-EAEC strains [4] = assay: Stability assay, pH (MIC)
Description: (§4) To explore the utility of phytochemicals as therapeutic molecules and their stability, individual phytochemicals were exposed to cationic salts, and different pH levels followed by analysing their MIC and MBC values against test strains as described earlier.
(§5) Subsequent to exposure to varied conditions, the antimicrobial activity of the phytochemicals was estimated by determining their MIC and MBC values against all the selected MDR strains of EAEC, S. Enteritidis, and S. Typhimurium as described earlier.

[5] = test system: MDR-S. Enteritidis strains; assay: Stability assay, pH (MIC)
Description: as §4, §5

[6] = test system: MDR-S. Typhimurium strains; assay: Stability assay, pH (MIC)
Description: as §4, §5

MDR-EAEC strains [7] = assay: Stability assay, cationic salts (MIC)
Description: as §4, §5

[8] = test system: MDR-S. Enteritidis strains; assay: Stability assay, cationic salts (MIC)
Description: as §4, §5

[9] = test system: MDR-S. Typhimurium strains; assay: Stability assay, cationic salts (MIC)
Description: as §4, §5

[10] = human 'O' erythrocytes, Human RBCs

Compound: Cc1ccc(C(C)C)c(O)c1 [Thymol, thymol]
- MBC (MDR-EAEC strains [1]; EAEC (E1)): 0.25 µl/ml
- MIC (MDR-EAEC strains [1]; EAEC (E1)): 0.25 µl/ml
- MBC (MDR-EAEC strains [1]; EAEC (E2)): 0.50 µl/ml
- MIC (MDR-EAEC strains [1]; EAEC (E2)): 0.25 µl/ml
- MBC (MDR-EAEC strains [1]; EAEC (E3)): 0.25 µl/ml
- MIC (MDR-EAEC strains [1]; EAEC (E3)): 0.25 µl/ml
- MBC ([2]; S. Enteritidis (S1)): 0.50 µl/ml
- MIC ([2]; S. Enteritidis (S1)): 0.12 µl/ml
- MBC ([2]; S. Enteritidis (S2)): 0.50 µl/ml
- MIC ([2]; S. Enteritidis (S2)): 0.25 µl/ml
- MBC ([2]; S. Enteritidis (S3)): 0.50 µl/ml
- MIC ([2]; S. Enteritidis (S3)): 0.25 µl/ml
- MBC ([3]; S. Typhimurium (ST1)): 0.50 µl/ml
- MIC ([3]; S. Typhimurium (ST1)): 0.25 µl/ml
- MBC ([3]; S. Typhimurium (ST2)): 0.50 µl/ml
- MIC ([3]; S. Typhimurium (ST2)): 0.25 µl/ml
- MBC ([3]; S. Typhimurium (ST3)): 0.50 µl/ml
- MIC ([3]; S. Typhimurium (ST3)): 0.06 µl/ml
- hemolysis at 0.25 X MIC (Haemolytic assay; [10]): 1.22%
- hemolysis at 0.5 X MIC (Haemolytic assay; [10]): 1.91%
- hemolysis at 1 X MIC (Haemolytic assay; [10]): 2.86%
- hemolysis at 2 X MIC (Haemolytic assay; [10]): 13.5%
- hemolysis at 4 X MIC (Haemolytic assay; [10]): 39.4%
- hemolysis at 8 X MIC (Haemolytic assay; [10]): 48.5%
- hemolysis at 0.25 X MIC (Haemolytic assay; sheep erythrocytes, Sheep RBCs): 0%
- hemolysis at 0.5 X MIC (Haemolytic assay; sheep erythrocytes, Sheep RBCs): 0.22%
- hemolysis at 1 X MIC (Haemolytic assay; sheep erythrocytes, Sheep RBCs): 1.49%
- hemolysis at 2 X MIC (Haemolytic assay; sheep erythrocytes, Sheep RBCs): 11.4%
- hemolysis at 4 X MIC (Haemolytic assay; sheep erythrocytes, Sheep RBCs): 21.6%
- hemolysis at 8 X MIC (Haemolytic assay; sheep erythrocytes, Sheep RBCs): 47.6%
- MIC at given pH (MDR-EAEC strains [4]; pH 4, strain E1): 0.25 µl/ml
- MIC at given pH (MDR-EAEC strains [4]; pH 4, strain E2): 0.25 µl/ml
- MIC at given pH (MDR-EAEC strains [4]; pH 4, strain E3): 0.25 µl/ml
- MIC at given pH (MDR-EAEC strains [4]; pH 6, strain E1): 0.25 µl/ml
- MIC at given pH (MDR-EAEC strains [4]; pH 6, strain E2): 0.25 µl/ml
- MIC at given pH (MDR-EAEC strains [4]; pH 6, strain E3): 0.25 µl/ml
- MIC at given pH (MDR-EAEC strains [4]; pH 8, strain E1): 0.5 µl/ml
- MIC at given pH (MDR-EAEC strains [4]; pH 8, strain E2): 0.25 µl/ml
- MIC at given pH (MDR-EAEC strains [4]; pH 8, strain E3): 0.5 µl/ml
- MIC at given pH ([5]; pH 4, strain S1): 0.5 µl/ml
- MIC at given pH ([5]; pH 4, strain S2): 0.5 µl/ml
- MIC at given pH ([5]; pH 4, strain S3): 0.5 µl/ml
- MIC at given pH ([5]; pH 6, strain S1): 0.5 µl/ml
- MIC at given pH ([5]; pH 6, strain S2): 0.5 µl/ml
- MIC at given pH ([5]; pH 6, strain S3): 0.5 µl/ml
- MIC at given pH ([5]; pH 8, strain S1): 0.5 µl/ml
- MIC at given pH ([5]; pH 8, strain S2): 1.0 µl/ml
- MIC at given pH ([5]; pH 8, strain S3): 0.5 µl/ml
- MIC at given pH ([6]; pH 4, strain ST1): 0.5 µl/ml
- MIC at given pH ([6]; pH 4, strain ST2): 0.5 µl/ml
- MIC at given pH ([6]; pH 4, strain ST3): 0.5 µl/ml
- MIC at given pH ([6]; pH 6, strain ST1): 0.5 µl/ml
- MIC at given pH ([6]; pH 6, strain ST2): 1.0 µl/ml
- MIC at given pH ([6]; pH 6, strain ST3): 0.5 µl/ml
- MIC at given pH ([6]; pH 8, strain ST1): 0.5 µl/ml
- MIC at given pH ([6]; pH 8, strain ST2): 1.0 µl/ml
- MIC at given pH ([6]; pH 8, strain ST3): 1.0 µl/ml
- MIC with cationic salt (MDR-EAEC strains [7]; 2 mM MgCl2, strain E1): 0.25 µl/ml
- MIC with cationic salt (MDR-EAEC strains [7]; 2 mM MgCl2, strain E2): 0.25 µl/ml
- MIC with cationic salt (MDR-EAEC strains [7]; 2 mM MgCl2, strain E3): 0.25 µl/ml
- Change of MIC values with cationic salts (MDR-EAEC strains [7]; 150 mM NaCl and 2 mM MgCl2, MDR-EAEC strains): remained almost similar
- MIC with cationic salt (MDR-EAEC strains [7]; 150 mM NaCl, strain E1): 0.25 µl/ml
- MIC with cationic salt (MDR-EAEC strains [7]; 150 mM NaCl, strain E2): 0.25 µl/ml
- MIC with cationic salt (MDR-EAEC strains [7]; 150 mM NaCl, strain E3): 0.25 µl/ml
- MIC with cationic salt ([8]; 2 mM MgCl2, strain S1): 0.5 µl/ml
- MIC with cationic salt ([8]; 2 mM MgCl2, strain S2): 0.5 µl/ml
- MIC with cationic salt ([8]; 2 mM MgCl2, strain S3): 0.5 µl/ml
- MIC with cationic salt ([8]; 150 mM NaCl, strain S1): 0.5 µl/ml
- MIC with cationic salt ([8]; 150 mM NaCl, strain S2): 0.5 µl/ml
- MIC with cationic salt ([8]; 150 mM NaCl, strain S3): 1.0 µl/ml
- MIC with cationic salt ([9]; 2 mM MgCl2, strain ST1): 0.5 µl/ml
- MIC with cationic salt ([9]; 2 mM MgCl2, strain ST2): 1.0 µl/ml
- MIC with cationic salt ([9]; 2 mM MgCl2, strain ST3): 0.5 µl/ml
- MIC with cationic salt ([9]; 150 mM NaCl, strain ST1): 0.5 µl/ml
- MIC with cationic salt ([9]; 150 mM NaCl, strain ST2): 0.5 µl/ml
- MIC with cationic salt ([9]; 150 mM NaCl, strain ST3): 0.5 µl/ml
